Test results taken from EP0851862B1, “1(HETERO)ARYL-4-(CONDENSED THIAZOL-2-YLALKYL)-PIPERAZINE DERIVATIVES, THEIR PREPARATION AND THEIR USE IN THE TREATMENT OF 5-HT1A-RECEPTOR MEDIATED DISORDERS” (Pharmacia Italia S.p.A., priority 1995, dated 1997).
Structures can show the parent of a compound that is named as a salt.

Experiments:
α1 = assay: receptor binding profile, α1; details: read-out: α1 Affinity is expressed as IC50
α2 = assay: receptor binding profile, α2; details: read-out: α2 Affinity is expressed as IC50
D1 = D1 (Rattus norvegicus, UniProt P18901); assay: receptor binding profile, D1; details: read-out: D1 Affinity is expressed as IC50
D1, sequence (P18901 whole entry): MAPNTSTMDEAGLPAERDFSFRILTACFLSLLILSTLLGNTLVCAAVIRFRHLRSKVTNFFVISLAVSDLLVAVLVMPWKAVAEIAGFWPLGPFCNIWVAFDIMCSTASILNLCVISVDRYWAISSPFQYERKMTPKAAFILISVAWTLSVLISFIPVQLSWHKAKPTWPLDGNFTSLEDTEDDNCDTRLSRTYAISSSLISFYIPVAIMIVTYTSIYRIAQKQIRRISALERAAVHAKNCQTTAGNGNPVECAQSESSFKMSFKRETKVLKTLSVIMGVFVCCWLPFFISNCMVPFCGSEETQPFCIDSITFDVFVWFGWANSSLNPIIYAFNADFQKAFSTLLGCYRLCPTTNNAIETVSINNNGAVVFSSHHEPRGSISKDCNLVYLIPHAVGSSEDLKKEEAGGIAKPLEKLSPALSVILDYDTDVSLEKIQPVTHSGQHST

D2 = D2 (Rattus norvegicus, UniProt P61169); assay: receptor binding profile, D2; details: read-out: D2 Affinity is expressed as IC50
D2, sequence (P61169 whole entry): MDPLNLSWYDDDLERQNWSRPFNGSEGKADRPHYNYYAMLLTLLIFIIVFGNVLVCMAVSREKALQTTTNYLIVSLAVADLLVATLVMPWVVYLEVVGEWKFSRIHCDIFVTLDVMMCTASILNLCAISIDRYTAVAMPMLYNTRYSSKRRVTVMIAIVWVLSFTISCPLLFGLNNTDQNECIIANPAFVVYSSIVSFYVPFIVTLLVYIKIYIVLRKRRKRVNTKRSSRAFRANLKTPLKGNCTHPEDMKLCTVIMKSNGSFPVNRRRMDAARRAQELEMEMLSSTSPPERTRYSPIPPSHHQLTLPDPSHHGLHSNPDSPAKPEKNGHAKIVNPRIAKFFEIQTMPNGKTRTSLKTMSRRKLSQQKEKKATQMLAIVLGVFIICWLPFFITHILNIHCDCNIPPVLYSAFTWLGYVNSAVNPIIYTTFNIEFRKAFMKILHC

5-HT1A receptor sites = target: T1, 5-HT1A receptor sites (Rattus norvegicus, UniProt P19327); assay: receptor binding profile, 5-HT1A; details: read-out: 5-HT1A Affinity is expressed as IC50
T1 sequence (P19327 1-422): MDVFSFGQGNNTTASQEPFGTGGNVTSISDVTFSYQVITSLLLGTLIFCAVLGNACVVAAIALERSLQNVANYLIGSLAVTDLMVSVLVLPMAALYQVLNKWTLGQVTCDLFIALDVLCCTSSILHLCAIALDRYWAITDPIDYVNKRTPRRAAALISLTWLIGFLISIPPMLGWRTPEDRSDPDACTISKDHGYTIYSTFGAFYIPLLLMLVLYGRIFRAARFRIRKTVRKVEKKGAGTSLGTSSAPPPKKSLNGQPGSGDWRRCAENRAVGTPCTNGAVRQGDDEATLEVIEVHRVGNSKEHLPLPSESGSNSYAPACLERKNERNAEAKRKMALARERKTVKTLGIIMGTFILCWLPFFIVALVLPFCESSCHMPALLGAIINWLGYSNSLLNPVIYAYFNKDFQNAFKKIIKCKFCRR
Source text: The affinity of the compounds of the present invention towards 5-HT1A receptor sites can be assessed by evaluating the binding profile of the compounds of formula (I).

5-HT2 = 5-HT2 (Rattus norvegicus, UniProt P14842); assay: receptor binding profile, 5-HT2; details: read-out: 5-HT2 Affinity is expressed as IC50
5-HT2, sequence (P14842 whole entry): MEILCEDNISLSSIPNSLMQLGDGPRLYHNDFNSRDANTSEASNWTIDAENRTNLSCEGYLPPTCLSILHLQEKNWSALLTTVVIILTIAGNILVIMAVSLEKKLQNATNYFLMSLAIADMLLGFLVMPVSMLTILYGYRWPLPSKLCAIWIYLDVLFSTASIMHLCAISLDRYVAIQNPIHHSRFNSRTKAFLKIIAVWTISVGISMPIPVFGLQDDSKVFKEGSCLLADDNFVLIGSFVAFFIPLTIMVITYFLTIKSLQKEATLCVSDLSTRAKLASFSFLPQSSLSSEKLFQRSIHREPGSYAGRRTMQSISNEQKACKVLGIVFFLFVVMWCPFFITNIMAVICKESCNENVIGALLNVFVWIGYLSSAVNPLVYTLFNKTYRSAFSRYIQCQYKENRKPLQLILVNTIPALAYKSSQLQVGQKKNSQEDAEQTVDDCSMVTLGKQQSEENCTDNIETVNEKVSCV

Row | Molecule | IC50 (α1) [nM] | IC50 (α2) [nM] | IC50 (D1) [nM] | IC50 (D2) [nM] | IC50 (5-HT1A receptor sites) [nM] | IC50 (5-HT2) [nM]
1 | 5-Methoxy-2-[4-(4-phenyl-piperazin-1-yl)-butyl]-4,5-dihydro-naphtho[1,2-d]thiazole hydrochloride [(11)] | 52 | 18 | 1770 | 24 | 10 | 66
2 | c1ccc(N2CCN(CCCc3nc4c(s3)CCc3ccccc3-4)CC2)cc1 [(4), 2-[3-(4-phenyl-piperazin-1-yl)-propyl]-4,5-dihydronaphtho[1,2-d]thiazole hydrocloride] | 120 | 110 |  |  | 69 | 280
3 | 6-Methoxy-2-[4-(4-phenyl-piperazin-1-yl)-butyl]-4,5-dihydro-naphtho[1,2-d]thiazole hydrochloride [(10)] | 1140 | 3770 | > 10000 | 680 | 400 | 3180
4 | 7-Methoxy-2-{4-[4-(2-pyridyl)-piperazin-1-yl]-butyl}-4,5-dihydro-naphtho[1,2-d]thiazole hydrochloride [(9)] | 58 | 20 | 430 | 11 | 4.1 | 55
5 | c1ccc(N2CCN(Cc3nc4c(s3)CCc3ccccc3-4)CC2)cc1 [(2), 2-[(4-phenyl-piperazin-1-yl)-methyl]-4,5 dihydronaphtho[1,2-d]thiazole hydrocloride] | 130 | 300 |  |  | 42 | 300
6 | 7-Methoxy-2-{4-[4-(2-methoxy-phenyl)-piperazin-1-yl]-butyl}-4,5-dihydro-naphtho[1,2-d]thiazole hydrochloride [(8)] | 200 | 380 | 1610 | 150 | 7 | 720
7 | c1ccc(N2CCN(CCCCc3nc4c(s3)CCc3ccccc3-4)CC2)cc1 [(5), 2-[4-(4-phenyl-piperazin-1-yl)-butyl]-4,5-dihydronaphtho[1,2-d]thiazole hydrocloride] | 170 | 260 |  |  | 67 | 66
8 | 5-Methoxy-2-{4-[4-(2-methoxy-phenyl)-piperazin-1-yl]-butyl}-4,5-dihydro-naphtho[1,2-d]thiazole hydrochloride [(13)] | 35 | 46 |  | 8 | 3.7 | 240
9 | 5-Methoxy-2-{4-[4-(2-pyridyl)-piperazin-1-yl]-butyl}-4,5-dihydro-naphtho[1,2-d]thiazole hydrochloride [(12)] | 190 | 390 | 1490 | 61 | 8.2 | 82
10 | 7-Methoxy-2-[4-(4-phenyl-piperazin-1-yl)-butyl]-4,5-dihydro-naphtho[1,2-d]thiazole hydrochloride [(7)] | 49 | 500 | 1180 | 25 | 12 | 870
11 | COc1ccc2c(c1)CCc1sc(CCCN3CCN(c4ccccc4OC)CC3)nc1-2 [(6), 7-Methoxy-2-{3-[4-(2-methoxy-phenyl) -piperazin-1-yl]-propyl}-4,5-dihydro-naphtho[1,2-d]thiazole hydrochloride] | 90 | 160 |  |  |  | 
12 | 6-Methoxy-2-{4-(4-(2-methoxy-phenyl)-piperazin-1-yl]-butyl}-4,5-dihydro-naphtho[1,2-d]thiazole hydrochloride [(1)] | 52 | 92 | 590 | 20 | 3.2 | 250
13 | c1ccc(N2CCN(CCc3nc4c(s3)CCc3ccccc3-4)CC2)cc1 [(3)] | 110 | 160 |  |  | 170 | 63
